Measured values published in publication PMC11872463, “Identification of a group of 9-amino-acridines that selectively downregulate regulatory T cell functions through FoxP3” (iScience, 2025).
Where a name gives a salt, the structure may show the parent alone. Read-outs that look alike come from different tables or passages of the source.

Columns and labels:
FoxP3 [1] = molecular target: T1, FoxP3 (Homo sapiens, UniProt Q9BZS1); assay: SPR, concentration-dependent binding to immobilized FoxP3 (KD not given in main text); IC50 is from AlphaScreen FoxP3-DNA competition; EMSA
T1 construct: His-FoxP3 full-length (SPR); His-FoxP3-ΔN (182-421aa) (AlphaScreen, EMSA)
T1 sequence (Q9BZS1 182-421): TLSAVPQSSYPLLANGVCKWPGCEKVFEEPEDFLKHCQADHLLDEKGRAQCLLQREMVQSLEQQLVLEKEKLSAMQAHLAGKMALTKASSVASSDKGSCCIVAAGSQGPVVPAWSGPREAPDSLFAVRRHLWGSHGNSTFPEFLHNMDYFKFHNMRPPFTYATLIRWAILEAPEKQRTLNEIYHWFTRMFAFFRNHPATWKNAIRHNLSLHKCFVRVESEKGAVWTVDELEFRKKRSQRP
Description: SPR, concentration-dependent binding to immobilized FoxP3 (KD not printed in main text); IC50 is from AlphaScreen FoxP3-DNA competition; EMSA on FoxP3 | we confirmed the concentration-dependent binding of QDD and MP4 to immobilized FoxP3 protein (Figure S6B)

FoxP3 [2] = molecular target: T1, FoxP3; assay: biochemical; parameters: SPR on Biacore T200, His-FoxP3 immobilized on CM5 chip, affinity
Description: To explore how 9-amino acridines downregulate FoxP3, directly or indirectly, a low-molecular-weight compound screening (low molecular weight [LMW] screen) was performed using surface plasmon resonance (SPR) analysis to determine affinities between FoxP3 and all the compounds listed in Table 1. […] In contrast, we observed low or no affinity for FoxP3 with compounds that had little or no effects on FoxP3 downregulation (such as MP20 and MP25). Furthermore, we confirmed the concentration-dependent binding of QDD and MP4 to immobilized FoxP3 protein (Figure S6B) with dissociation constant (KD) values corresponding to the observed IC50 in the cell-based assay, implying that the function of 9-amino-acridine analogs on FoxP3 regulation might be due to their direct binding ability. SPR, concentration-dependent binding to immobilized FoxP3 (KD not printed in main text); IC50 is from AlphaScreen FoxP3-DNA competition; EMSA on FoxP3 | we confirmed the concentration-dependent binding of QDD and MP4 to immobilized FoxP3 protein (Figure S6B)

FoxP3 [3] = test system: T2, FoxP3; assay: cells; parameters: species or system primary human CD3+ T cells; flow cytometry of FoxP3+ % in CD4+ T cells, normalized to mock (FoxP3 down-regulation); conditions: FoxP3 down-regulation in CD4+ T cells, 24 h
T2 construct: endogenous, primary CD4+ T cells
Description: To search for potential small molecular FoxP3 inhibitors, we screened the Prestwick library of approved drugs (1,522 compounds) for compounds that regulated the expression of FoxP3 using a novel high-throughput flow cytometry protocol. Primary CD3^+ T cells from healthy donors were treated with compounds from the Prestwick library at 10 μM for 16 h, followed by a high-throughput flow cytometry analysis measuring FoxP3% in CD4^+ T cells (for workflow, see Figure S1A). Compounds that reduced FoxP3 levels compared to DMSO were selected for further validation. The first verified hit was quinacrine dihydrochloride dihydrate (QDD), where we observed a concentration-dependent FoxP3 downregulation with an IC50 of less than 5 μM in all donors tested (Figures 1A and 1B; Table 1, group 0; Figure S2A). QDD was also confirmed to downregulate FoxP3 in Tregs by gating out CD127^+ cells in both non-stimulated and stimulated T cells (Figure S1B). […] In the first round, compounds MP2, MP3, MP4, and MP5 were identified to be working efficiently in downregulating FoxP3 levels (Table 1, group 2; Table S1; Figure S2C). […] Therefore, a small library of similar acridine and acridinone compounds (Table 1, group 3 and 4; Table S1; Figures S2D and S2E) was assembled by in-silico prediction and assessed for their effects on FoxP3 regulation. […]

SMILES	IC50 (FoxP3 [1]; read-out: IC50) [µM]	Kd (FoxP3 [2]) [µM]	IC50 (FoxP3 [3]) [µM]	IC50 (FoxP3 [1]) [µM]
CCN(CC)CCCC(C)Nc1c2cc(OC)ccc2nc2cc(Cl)c(N)cc12 (centres unmarked) [MP4, 3-chloro-N9-[5-(diethylamino)pentan-2-yl]-7-methoxyacridine-2,9-diamine]	0.37	6.9	–	–
COc1cc(NC(C)CCCN)c2ncccc2c1 (centres unmarked) [Primaquine]	–	–	> 100	–
CCN(CC)CCCC(C)Nc1c2ccc(Cl)cc2nc2ccc(OC)cc12 (centres unmarked) [QDD, 6-chloro-N-[5-(diethylamino)pentan-2-yl]-2-methoxyacridin-9-amine dihydrate dihydrochloride]	–	4.09	–	2
